# Results taken from patent US20250019503A1, “METAL COMPLEXED CYANURATE GERMICIDAL ADDITIVE FOR POLYMER COMPOSITIONS” (SABIC Global Technologies B.V., priority 2022, published 2025).
SMILES,hygroscopicity (based on lack of mass loss between 55° C. to 133° C.),"most extensive mass loss (at 240° C. to 300° C., attributed to pyrolysis/oxidations)","mass loss (between 55° C. to 100° C., nitrogen and air, attributed to absorbed water)"
"O=c1[n-]c(=O)n(Cl)c(=O)n1Cl.O=c1[n-]c(=O)n(Cl)c(=O)n1Cl.O=c1[n-]c(=O)n(Cl)c(=O)n1Cl.O=c1[n-]c(=O)n(Cl)c(=O)n1Cl.[Cu+2].[Na+].[Na+] [CuDCC, Copper Dichlorocyanurate]",not hydroscopic,,
"O=c1nc([O-])n(Cl)c(=O)n1Cl.[Na+] [NaDCC, sodium dichlorocyanurate]",,~40%,around 7%
